Measured values: patent US5843437A, “A82846 antibiotics” (Eli Lilly and Company, priority 1995, dated 1998)
In brackets after ≈: the same amount, converted by molar mass.

Columns and labels:
[1] = tested on: Bacteroides thetaiotaomicron; experiment: MIC against anaerobic bacteria, standard agar-dilution assay (Table IX); type: cell-based; details: 1 strain; Gram-negative anaerobe; 24-hour incubation
[2] = tested on: Fusobacterium symbiosum; experiment: as above; type: cell-based; details: 1 strain; Gram-negative anaerobe; 24-hour incubation
[3] = tested on: Streptococcus pyogenes; experiment: protection of mice experimentally infected with test organism (Table X); type: in vivo; details: mice, subcutaneous, 1 and 4 hours postinfection
Procedure: (§1) The A82846 antibiotics have also shown in vivo antimicrobial activity against experimentally-induced infections in laboratory animals. When two doses of test compound were administered to mice experimentally infected with the test organism, the activity observed was measured as an ED50 value [effective dose in mg/kg to protect 50% of the test animals: see Warren Wick, et al., J. Bacteriol. 81, 233-235 (1961)].
(§2) ^a mg/kg × 2; doses administered subcutaneously to mice 1 and 4

[4] = tested on: Staphylococcus aureus; experiment: as above; type: in vivo; details: mice, subcutaneous, 1 and 4 hours postinfection
Procedure: as §1, §2

[5] = tested on: Streptococcus pneumoniae; experiment: as above; type: in vivo; details: mice, subcutaneous, 1 and 4 hours postinfection
Procedure: as §1, §2

[6] = serum half-life after intravenous administration to rats; details: rat, in vivo
Description: The A82846 antibiotics have excellent in vitro and in vivo activity against Gram-positive pathogenic bacteria. A particularly unexpected attribute of these antibiotics is their long serum half-life.

[7] = tested on: Bacteroides fragilis; experiment: MIC against anaerobic bacteria, standard agar-dilution assay (Table IX); type: cell-based; details: 3 strains; Gram-negative anaerobe; 24-hour incubation
[8] = tested on: Clostridium difficile; experiment: as above; type: cell-based; details: 19 strains; Gram-positive anaerobe; 24-hour incubation
[9] = tested on: Bacteroides melaninogenicus; experiment: as above; type: cell-based; details: 2 strains; Gram-negative anaerobe; 24-hour incubation

SMILES | MIC [1] [µg/mL] | MIC [2] [µg/mL] | ED50 Value [3] [mg/kg × 2] | ED50 Value [4] [mg/kg × 2] | ED50 Value [5] [mg/kg × 2] | serum half-life [6] [h] | MIC [7] [µg/mL] | MIC [8] [µg/mL] | MIC [9] [µg/mL]
CN[C@H](CC(C)C)C(=O)N[C@H]1C(=O)N[C@@H](CC(N)=O)C(=O)N[C@H]2C(=O)N[C@H]3C(=O)N[C@H](C(=O)N[C@@H](C(=O)O)c4cc(O)cc(O)c4-c4cc3ccc4O)[C@H](O[C@@H]3C[C@@](C)(N)[C@H](O)[C@@H](C)O3)c3ccc(cc3)Oc3cc2cc(c3O[C@H]2O[C@@H](CO)[C@H](O)[C@@H](O)[C@@H]2O[C@H]2C[C@](C)(N)[C@@H](O)[C@H](C)O2)Oc2ccc(cc2Cl)[C@H]1O [A82846A] | 128 (≈ 82.2 µM) | 128 (≈ 82.2 µM) | 0.19 | 0.19 | 0.17 | 2.2 | > 128 | 0.125 to 1 | > 128
CN[C@H](CC(C)C)C(=O)N[C@H]1C(=O)N[C@@H](CC(N)=O)C(=O)N[C@H]2C(=O)N[C@H]3C(=O)N[C@H](C(=O)N[C@H](C(=O)O)c4cc(O)cc(O)c4-c4cc3ccc4O)[C@H](O[C@H]3C[C@](C)(N)[C@@H](O)[C@H](C)O3)c3ccc(c(Cl)c3)Oc3cc2cc(c3O[C@@H]2O[C@H](CO)[C@@H](O)[C@H](O)[C@H]2O[C@H]2C[C@](C)(N)[C@@H](O)[C@H](C)O2)Oc2ccc(cc2Cl)[C@H]1O [A82846B] | 128 (≈ 80.4 µM) | 128 (≈ 80.4 µM) | 0.20 | 0.19 | 0.18 | 2.2 | > 128 | ≤0.06 to 0.125 | > 128
